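Tested at 5 concentrations; 48 h exposure; 96-well plates; endpoints linearly interpolated, else capped at highest concentration. TGI: total growth inhibition.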
How the values were obtained:
Assay in all cases: NCI-60 cell line screen, 48 h
DU-145 prostate = tested on: DU-145 prostate
HCC-2998 colon = tested on: HCC-2998 colon
HCT-116 colon = tested on: HCT-116 colon
HT29 colon = tested on: HT29 colon
K-562 leukemia = tested on: K-562 leukemia
MALME-3M melanoma = tested on: MALME-3M melanoma
MOLT-4 leukemia = tested on: MOLT-4 leukemia
NCI-H460 lung = tested on: NCI-H460 lung
SNB-19 CNS = tested on: SNB-19 CNS
SNB-75 CNS = tested on: SNB-75 CNS
UO-31 renal = tested on: UO-31 renal
A498 renal = tested on: A498 renal

| SMILES | TGI (DU-145 prostate) [µM] | TGI (HCC-2998 colon) [µM] | TGI (HCT-116 colon) [µM] | TGI (HT29 colon) [µM] | TGI (K-562 leukemia) [µM] | TGI (MALME-3M melanoma) [µM] | TGI (MOLT-4 leukemia) [µM] | TGI (NCI-H460 lung) [µM] | TGI (SNB-19 CNS) [µM] | TGI (SNB-75 CNS) [µM] | TGI (UO-31 renal) [µM] | TGI (A498 renal) [µM] |
| --- | --- | --- | --- | --- | --- | --- | --- | --- | --- | --- | --- | --- |
| COC(=O)C12CCCN1CCC2 | > 100 | > 100 | > 100 | > 100 | > 100 | > 100 | > 100 | > 100 | > 100 | > 100 | > 100 | – |
| CCCCCCCCCCCCCOCCOCCOCCCCC(O)CCCCCCCCCC1=C[C@H](C)OC1=O (stereo partly specified) | 66.3 | 74.4 | 33.4 | 57.6 | > 100 | – | 37.2 | > 100 | 43.7 | > 100 | 44.4 | – |
| COC1CCC(O)C(CO)O1 (stereo unspecified) | – | > 100 | > 100 | > 100 | 47.6 | 65.3 | > 100 | > 100 | – | > 100 | > 100 | – |
| CCOC(=O)c1ccc(N2C(=O)/C(=C/c3ccc(N(CCC#N)CCC#N)cc3)N=C2c2cc([N+](=O)[O-])ccc2Cl)cc1 | – | > 100 | > 100 | – | > 100 | > 100 | > 100 | – | > 100 | – | > 100 | – |
| COc1nc2ncc([C@@H](OC(C)=O)[C@@H](COC(C)=O)OC(C)=O)nc2c(=O)n1C | > 100 | – | > 100 | > 100 | > 100 | > 100 | > 100 | > 100 | > 100 | > 100 | > 100 | > 100 |
| COC(=O)C12C(=O)CC3CCC1C32C(=O)OC (stereo unspecified) | > 100 | > 100 | > 100 | > 100 | > 100 | > 100 | > 100 | > 100 | > 100 | > 100 | > 100 | – |
| COP(=O)(OC)[C@@](O)(c1ccccc1)[C@@H](O)[C@H](O)c1ccccc1 | > 100 | – | > 100 | > 100 | > 100 | > 100 | > 100 | > 100 | > 100 | > 100 | > 100 | > 100 |
| Cc1c2ccccc2c(=O)n2c(-c3ccccn3)cccc12 | – | > 100 | > 100 | > 100 | > 100 | > 100 | > 100 | > 100 | > 100 | > 100 | > 100 | > 100 |
| CC1(N2CCOCC2)CC2C(=[N+]1[O-])CCC/C2=N/O (stereo unspecified) | – | > 100 | > 100 | > 100 | > 100 | > 100 | > 100 | > 100 | > 100 | > 100 | > 100 | – |
| C[N+](C)(N)Cc1nc(-c2ccc(Cl)cc2)no1 | > 100 | – | > 100 | > 100 | > 100 | > 100 | > 100 | > 100 | > 100 | > 100 | – | > 100 |
| C[C@]12CC[C@H]3[C@@H](CC=C4C[C@@H](N5CCCC5)CC[C@@]43C)[C@@H]1C/C(=C\c1ccc([N+](=O)[O-])cc1)[C@@H]2O | 34.7 | – | 29.8 | 27.4 | – | 32.1 | 4.99 | > 100 | 59.2 | – | 28.4 | 28.6 |
| Nc1nc(N)c2cc(-c3cc4ccccc4[nH]3)ccc2n1 | 58.8 | – | > 100 | 38.9 | – | 30.4 | 53.1 | 45.8 | > 100 | > 100 | 32.9 | 32.7 |
| CC(=O)Oc1ccc2c(c1)O/C(=C\c1ccc(N(C)C)cc1)C2=O | > 100 | > 100 | > 100 | > 100 | > 100 | – | > 100 | > 100 | > 100 | > 100 | > 100 | – |
| CCOc1cc2c(cc1OC)c[n+](C)c1c3cc(OC)c(OC)cc3ccc21 | – | > 100 | > 100 | > 100 | > 49 | > 100 | > 100 | > 100 | > 100 | – | > 100 | > 100 |
| Cc1cnoc1/N=C1\C=C(Nc2oncc2C)C(=O)c2ccccc21 | – | > 100 | > 100 | > 100 | > 100 | > 100 | > 100 | > 100 | > 100 | > 100 | > 100 | > 100 |
| OC1C2CN3CCN(C2)CC1(c1ccccc1)C3 (stereo unspecified) | > 100 | – | > 100 | > 100 | > 100 | > 100 | > 100 | – | > 100 | > 100 | > 100 | > 100 |

Reference: PubChem BioAssay (NCI)
